Measured values published in US7390826B2, “Inhibitors of animal cell motility and growth” (The Board of Trustees of The University of Illinois, priority 2002, dated 2008).
“Also recorded” adds a separate entry of the source. Read-outs that look alike come from different tables or passages of the source.

Columns and labels:
MDCK cells = test: Trypan blue exclusion cell viability assay; format: cell-based, canine
Text: Cells also remain normal in morphology with both cell-substratum and cell-cell adhesion intact after treatment with compound 1.

Keller sandwich explants = test: convergent extension in Keller sandwich explants; parameters: species or system frog
Text: It is hypothesized, but not relied upon herein, that the effects of compound 1 are mediated by an activity or activities after stage 9 during gastrulation and neurulation, and its effects on blastopore closure and anteroposterior elongation are consistent with inhibition of convergent extension. […] Therefore, compound 1 affects cell motility, cell polarity, and/or cell adhesion in the embryo.

[1] = test system: Madin-Darby canine kidney (MDCK) cell monolayers; test: scrape-wound closure assay in MDCK cell monolayers; format: cell-based; conditions: for IC50: Canis lupus familiaris, MDCK, 12 h
Text: A method of determining the ability of a compound to inhibit or accelerate cell motility is a scrape-wound closure assay using cultured mammalian epithelial cell monolayers. Mechanical scraping of the epithelial monolayer induces cell sheet migration into the resulting gap, a phenomenon characteristic of wounded epithelia and mechanistically related to normal epithelial movements during embryonic morphogenesis (A. Jacinto et al., Nat. Cell Biol, 3, E117 (2001)). Epithelial cell sheet migration in this method proceeds by a Rac- and phosphoinositide-dependent cell crawling mechanism resembling the motility of other animal cells that move as individuals rather than as cell sheets (G. Fenteany et al., Curr. Biol., 10, 831 (2000)).
Wound closure in MDCK cell monolayers primarily involves cell spreading and motility rather than proliferation based on observations and treatments that block cell growth without inhibiting closure. However, after closure is complete and the gap is covered, cell division is observed in the former wound area, presumably as part of a homeostatic mechanism to regain the original cell density (M. F. Olson et al., Science, 269, 1270 (1995)). Wound closure involves Rac- and phosphoinositide-dependent actin polymerization and protrusion-driven cell crawling behavior, where force generation for movement is distributed from the wound margin to several rows of cells behind the margin. Accordingly, this method is excellent for determining whether a compound affects cell motility.
Cell culture conditions: Madin-Darby canine kidney (MDCK) cells (American Type Culture Collection cell line CCL-34) were cultured in Minimum Essential Medium (with Earle's balanced salts, non-essential amino acids, L-glutamine and sodium pyruvate) supplemented with 10% newborn calf serum at 37° C. and 5% carbon dioxide (CO2). Main cultures were grown in either […] tissue culture flasks with medium changes every two days. When cultures were about 75% confluent, cells were passaged by rinsing twice with single strength phosphate buffered saline (PBS) and treating with a solution of 0.05% (w/v) trypsin/0.02% (w/v) ethylenediaminetetraacetic acid (EDTA) in PBS to detach cells from the flasks. After cells were detached, an equal volume of serum-containing medium was added to inhibit the trypsin and cell density was determined using a hemacytometer. Cells were replated following dilution in fresh medium on new tissue culture flasks for continued culture and multiwell tissue culture plates for experiments. No culture used exceeded 15 passages. Experimental cultures were grown in 12-, 24-, 48-, or 96-well tissue culture plates with medium changes every two days.
Wound closure assay and compound screening: MDCK cells were plated on multiwell tissue culture plates and cultured at 37° C. and 5% CO2 with medium changes every two days until confluent. When the cultures reached confluence, medium was changed again and all experimental treatments were begun a day later. Compounds were solubilized in dimethyl sulfoxide (DMSO) and added with fresh-medium to cell cultures at initial screening concentrations of 10 and 100 μM. Controls consisted of parallel wells to-which DMSO solvent carrier alone was added at the same concentration as that added with experimental treatments (not exceeding 0.1% (v/v)). DMSO alone at this concentration had no detectable effect on the cells. Monolayers were scraped 30 min later with a micropipette and ultramicro tips, allowing small wounds of consistent size to be generated. Progress of wound closure was examined at set time intervals following wounding by microscope, and inhibitory or acceleratory effects on wound closure relative to parallel controls noted. […] Digital images of the wounded monolayers were taken every 2 hours for 18 hours, and then at 30, 36, 54, 60, and 72 hours following wounding. The number of lamellipodia at the wound margin was also counted at these times. […]

## C/C=C/C(=O)N1C(=O)OC[C@@H]1Cc1ccccc1 [Compound 1, (4S)-3-((E)-2-butenoyl)-4-benzyl-2-oxazolidinone]
MDCK cells
  toxicity at concentrations that inhibit cell migration: no general toxicity; also recorded: no evidence of toxicity or metabolic distress
Keller sandwich explants
  convergent extension: inhibits convergent extension
[1]; read-out: calculated IC50 for inhibition of wound closure at 12 hours
  IC50: 14 µM
[1]; read-out: log IC50±standard error of log IC50 (converted)
  IC50: 14 µM
[1]; MDCK cells, p<0.05
  inhibition of cell motility / epithelial cell sheet migration during wound closure: potent inhibitor of cell motility; also recorded: inhibits epithelial cell sheet migration during wound closure
[1]; serum-free
  inhibition of wound closure in serum-free conditions: inhibited wound closure to a similar degree relative to the control
[1]; upon changing to compound-free medium
  reversibility of inhibition of wound closure: reversible
